Measurements as given in EP1458697B1, “BIPHENYLMETHYL-THIAZOLIDINEDIONES AND ANALOGUES AND THEIR USE AS PPAR-GAMMA ACTIVATORS” (Galderma Research & Development, S.N.C., priority 2001, dated 2003).

Legend:
[1] = target: T1, récepteur chimère Gal-PPARγ (LBD) (Homo sapiens, UniProt P37231); test: Transactivation test, Hela cells stably transfected with chimeric receptor Gal-PPARγ (LBD), luciferase readout; type: cell-based; conditions: M-HeLa, 24 h, compound at 1 microM, percent of activation relative to reference agonist at 1 µM, read-out: % d'activation (à 1 microM) PPARγ
T1 construct: le récepteur chimère Gal-PPARγ (LBD); Gal (fusion partner); expressed in transfected cells; host or cells: HeLa cells, stably transfected
T1 sequence (P37231 238-503 limits assumed): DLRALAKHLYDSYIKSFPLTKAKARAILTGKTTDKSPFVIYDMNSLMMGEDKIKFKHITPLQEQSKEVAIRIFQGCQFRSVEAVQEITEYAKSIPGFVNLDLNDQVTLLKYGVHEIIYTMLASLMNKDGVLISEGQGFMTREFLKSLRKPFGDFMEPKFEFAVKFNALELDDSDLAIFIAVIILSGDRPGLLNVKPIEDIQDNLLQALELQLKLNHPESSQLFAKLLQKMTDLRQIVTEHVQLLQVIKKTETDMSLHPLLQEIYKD
Description: L'activité agoniste vis à vis des récepteurs PPARγ des composés selon l'invention peut être évaluée par des tests de transactivation.
(§1) La capacité des molécules à activer et/ou inhiber les récepteurs PPARγ est évaluée à partir de cellules Hela transfectées de manière stable avec le récepteur chimère Gal-PPARγ (LBD).
(§2) Des plaques 96 puits sont ensemencées à raison de 10 000 cellules /100 µl / puit dans du milieu DMEM 10% SDL puis placées 24 heures à 37°C, 7% CO2.
(§3) Pour déterminer l'activité agoniste PPARγ, les cellules sont ensuite traitées par ajout de 5 µl puit des molécules à tester à la concentration finale de 1 µM. Des cellules sont également traitées en parallèle avec un agoniste de référence, l'acide (-)-3-{4-[2-(Benzooxazol-2-yl-methyl-amino)-ethoxy]-phenyl}-2-ethoxy-propionique, 1 µM.
(§4) Après une nouvelle incubation de 24 heures à 37°C, 7% CO2, un dosage de la luciférase est effectué à l'aide du kit « Steady-Glo Luciferase Assay System » de Promega. Le comptage de la luminescence se fait sur un lecteur de microplaque Microbéta Trilux (Wallac).
(§5) L'activité agoniste du produit testé sera exprimée en pourcentage d'activation par rapport au témoin agoniste l'agoniste de référence à 1 µM.
(§6) L'AC50, exprimée en nM, est déterminée comme la concentration permettant d'obtenir 50% d'activation du signal basal par rapport à l'agoniste de référence.

[2] = target: T2, récepteur chimère Gal-PPARα (Homo sapiens, UniProt Q07869); test: Transactivation test, same protocol with chimeric receptor Gal-PPARα; type: cell-based; conditions: Hela cells; for activation at 1 µM: 24 h, compound at 1 microM, percent of activation relative to reference agonist (Wy 14643 = 100%), read-out: % d'activation (à 1 microM) PPARα; for AC50: concentration giving 50% activation relative to reference agonist, read-out: AC50 (en nM) PPARα
T2 sequence (Q07869 167-468): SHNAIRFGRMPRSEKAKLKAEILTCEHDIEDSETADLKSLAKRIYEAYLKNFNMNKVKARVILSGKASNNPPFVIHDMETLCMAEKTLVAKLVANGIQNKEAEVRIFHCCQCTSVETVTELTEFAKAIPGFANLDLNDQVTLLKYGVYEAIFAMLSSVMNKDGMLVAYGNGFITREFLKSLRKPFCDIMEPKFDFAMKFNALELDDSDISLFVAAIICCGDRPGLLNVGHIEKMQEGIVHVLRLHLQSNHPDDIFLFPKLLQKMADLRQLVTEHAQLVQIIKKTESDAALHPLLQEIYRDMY
Source text: De préférence, l'activateur des récepteurs de type PPARγ est spécifique, c'est à dire qu'il présente un rapport du pourcentage d'activation des récepteurs PPARγ, au pourcentage d'activation des récepteurs PPARα (calculé par rapport à un composé de référence, le Wy 14643, activant les PPARα de 100%) supérieur ou égal à 3. De préférence, ce rapport est supérieur ou égal à 5 et plus avantageusement supérieur ou égal à 10.
as §1, §2, §3, §4, §5
En appliquant ce même protocole avec le récepteur chimère Gal-PPARα, on peut mesurer l'activité agoniste des composés vis à vis des récepteurs PPAR alpha et ainsi la comparer avec celui du récepteur PPARγ.
as §6

Row | activation at 1 µM [1] [%] | activation at 1 µM [2] [%] | AC50 [2] [nM] | SMILES
1 | 114 | 41.9 | > 50000 | CCO[C@@H](Cc1ccc(-c2cccc(CN(C)C(=O)CCCCC(=O)c3ccccc3)c2)cc1)C(=O)O [Composé de l'exemple 20, Acide (S)-2-Ethoxy-3-(3'-{[methyl-(6-oxo-6-phenyl-hexanoyl)-amino]-methyl}-biphenyl-4-yl)-propionique]
2 | 97.2 | 33.6 |  | CN(Cc1cccc(-c2ccc(CC3SC(=O)NC3=O)cc2)c1)C(=O)c1cccn1C (stereo not shown) [Composé de l'exemple 8, N-[4'-(2,4-dioxo-thiazolidin-5-ylmethyl)-biphenyl-3-ylmethyl]-N-methyl-1-Methyl-1H-pyrrole-2-carboxamide]
3 | 108 | -3.9 |  | CN(C)c1ccc(NC(=O)N(C)c2cccc(-c3ccc(CC4SC(=O)NC4=O)cc3)c2)cc1 (stereo not shown) [Composé de l'exemple 22, 3-(4-Dimethylamino-phenyl)-1-[4'-(2,4-dioxo-thiazolidin-5-ylmethyl)-biphenyl-3-yl]-1-methyl-urée]
4 | 102 | 100 | > 50000 | CCO[C@@H](Cc1ccc(-c2cccc(CN(C)C(=O)c3ccc(-c4ccccc4)cc3)c2)cc1)C(=O)O [Composé de l'exemple 19, Acide (S)-3-(3'-{[(1-Biphenyl-4-yl-methanoyl)-methyl-amino]-methyl}-biphenyl-4-yl)-2-ethoxy-propionique]
5 | 96.1 | 15.1 | > 50000 | CN(Cc1cccc(-c2ccc(CC3SC(=O)NC3=O)cc2)c1)C(=O)c1ccc2cc(O)ccc2c1 (stereo not shown) [Composé de l'exemple 17, 6-Hydroxy-N-[4'-(2,4-dioxo-thiazolidin-5-ylmethyl)-biphenyl-3-ylmethyl]-N-methyl-naphthalene-2-carboxamide]
6 | 90.7 | 37.3 | > 50000 | CSc1ccc(C(=O)N(C)Cc2cccc(-c3ccc(CC4SC(=O)NC4=O)cc3)c2)cc1 (stereo not shown) [Composé de l'exemple 18, N-[4'-(2,4-Dioxo-thiazolidin-5-ylmethyl)-biphenyl-3-ylmethyl]-N-methyl-4-methylsulfanyl-benzamide]
7 | 168 | 12.3 | > 50000 | CN(Cc1cccc(-c2ccc(CC3SC(=O)NC3=O)cc2)c1)C(=O)CCCCC(=O)c1ccccc1 (stereo not shown) [Composé de l'exemple 12, N-[4'-(2,4-dioxo-thiazolidin-5-ylmethyl)-biphenyl-3-ylmethyl]-N-methyl-6-oxo-6-phenyl-hexanamide]
8 | 93.3 | 22.9 | > 50000 | COCCOCOc1ccc2cc(C(=O)N(C)Cc3cccc(-c4ccc(CC5SC(=O)NC5=O)cc4)c3)ccc2c1 (stereo not shown) [Composé de l'exemple 16, 6-(2-Methoxy-ethoxymethoxy)-N-[4'-(2,4-dioxo-thiazolidin-5-ylmethyl)-biphenyl-3-ylmethyl]-N-methyl-naphthalene-2-carboxamide]
9 | 112 | 13.4 | > 50000 | CN(Cc1cccc(-c2ccc(CC3SC(=O)NC3=O)cc2)c1)C(=O)c1ccc(N(C)C)c2ccccc12 (stereo not shown) [Composé de l'exemple 13, 4-Dimethylamino-N-[4'-(2,4-dioxo-thiazolidin-5-ylmethyl)-biphenyl-3-ylmethyl]-N-methyl-naphthalene-1-carboxamide]
10 | 102 | 28.8 | > 50000 | CN(Cc1cccc(-c2ccc(CC3SC(=O)NC3=O)cc2)c1)C(=O)c1ccc(C(=O)c2ccccc2)cc1 (stereo not shown) [Composé de l'exemple 15, N-[4'-(2,4-Dioxo-thiazolidin-5-ylmethyl)-biphenyl-3-ylmethyl]-N-methyl-4-(1-phenyl-methanoyl)-benzamide]
